Here are results for two compounds from patent US10463040B2, “Composition comprising a pesticide and isononanoic acid N,N-dimethyl amide” (BASF SE, priority 2015, dated 2019).

Structures are written as SMILES.

A short description of data set [1]: Determination of the max. solubility of fungicide/herbicide in the carboxylic acid amide (quantitative 1H-NMR of supernatant). Type of data set: physicochemical. As for the experimental part: The respective fungicide/herbicide was dissolved in the solvent of interest so that a supersaturated solution was obtained. The deposit was filtered off. The concentration of the fungicide/herbicide in the supernatant was determined via quantitative 1H-NMR spectroscopy.

A short description of data set [2]: Emulsion stability: 5% of the emulsion concentrate diluted in CIPAC water D, ml cream after 1, 2, 4 and 24 h. To be noted: for Emulsion 5% in Cipac D 1 h / Emulsion 5% in Cipac D 2 h / Emulsion 5% in Cipac D 4 h / Emulsion 5% in Cipac D 24 h: amide 63%; for Stability of the emulsion comprising the amide: summary in words of Example 4. The arrangement: key to Emulsion 5% in Cipac D 2 h / Emulsion 5% in Cipac D 4 h / Emulsion 5% in Cipac D 1 h / Emulsion 5% in Cipac D 24 h: stable = no cream. The data set is classed as physicochemical. As for the experimental part:
Stable in the context of the present invention means that no cream has formed within 24 hours after mixing components of a formulation. To measure the stability, 5% of the formulation (emulsion concentrate) is diluted in CIPAC water D in a 100 ml cylinder. The resulting oil-in-water emulsion is assessed after 1, 2, 4 and 24 hours.

The next data set has as its system wheat and black bindweed. The data set can be described thus: Phytotoxicity laboratory test: plants treated with 2 g of a 1% emulsion, evaluated visually after 3 days. Type of data set: in vivo. As for the experimental part: No phytotoxicity in the context of the present invention means that in comparison to untreated plants, 0% of the treated plants have plant injury according to the phytotoxicity method described below.
Phytotoxicity in accordance with the present invention is determined by an assay where e.g. wheat (grasses) or black bindweed (broad leave), are treated with 2 g of a 1% Emulsion described below and are visually evaluated after 3 days of incubation. Plant injury covers the assessment of leave condition as well as resistance to lodging in case of grasses.
The emulsion is prepared by mixing 1% of concentrate with water. The concentrate consists of 7.5% of castor oil ethoxylate (30 EO), 2.5% Ca-Dodecylbenzolsulfonate and 90% carboxylic acid amide. The experimental period lasts for 3 days. During this time, the experimental plants receive optimum watering, with nutrients being supplied via the water used for watering.
The phytotoxicity is evaluated by awarding scores to the treated plants in comparison to untreated plants, i.e. treated with water only. The evaluation scale ranges from 0% to 100% phytotoxicity. The evaluation is done by visual examination. 0% phytotoxicity means that there are no differences between treated and untreated plants. […]
Plants, i.e. wheat and black bindweed, were treated with 2 g of a 1% Emulsion described below and were visually evaluated after 3 days of incubation. […]

Where [3] appears, read: Formulation: Oxyfluorfen 25%, Ca Dodecylbenzolsulfonat 2%, Castor oil ethoxylate (35 EO) 10%.
Where [4] appears, read: Formulation: Oxyfluorfen 25%, Castor oil ethoxylate (35 EO) 12%.
Where [5] appears, read: Formulation: Tebuconazol 25%, Ca Dodecylbenzolsulfonat 2%, Castor oil ethoxylate (35 EO) 10%.
The mark [6] stands for this setting: Formulation: Tebuconazol 25%, Castor oil ethoxylate (35 EO) 12%.

Turning to `CCCCCCCCC(=O)N(C)C` [n-C9 N,N-dimethylamide], in data set [1], the “Solubility [%] Oxyfluorfen” value is recorded as 34%, the “Solubility [%] Pyraclostrobin” value worked out at 46% and the “Solubility [%] Tebuconazole” value was determined as 42%. For the same compound, in data set [2] (setting [3]), the “Emulsion 5% in Cipac D 1 h” value was 0.5 ml cream, the “Emulsion 5% in Cipac D 2 h” value is 3 ml cream, the “Emulsion 5% in Cipac D 4 h” value was determined as 4.0 ml cream and the “Emulsion 5% in Cipac D 24 h” value was determined as 6 ml cream. For the same compound, in data set [2] (setting [4]), the “Emulsion 5% in Cipac D 1 h” value is recorded as 0.5 ml cream, the “Emulsion 5% in Cipac D 2 h” value was 1 ml cream, the “Emulsion 5% in Cipac D 4 h” value came to 4.0 ml cream and the “Emulsion 5% in Cipac D 24 h” value came out at 6 ml cream. In data set [2] (setting [5]), the “Emulsion 5% in Cipac D 1 h” value came to 3.0 ml cream, the “Emulsion 5% in Cipac D 2 h” value was 8 ml cream, the “Emulsion 5% in Cipac D 4 h” value came to 8.0 ml cream and the “Emulsion 5% in Cipac D 24 h” value is reported as 8 ml cream. Moreover, in data set [2] (setting [6]), the “Emulsion 5% in Cipac D 1 h” value was “stable”, the “Emulsion 5% in Cipac D 2 h” value came to 2 ml cream, the “Emulsion 5% in Cipac D 4 h” value is 3.0 ml cream and the “Emulsion 5% in Cipac D 24 h” value is 3 ml cream. For the same compound, the “Stability of the emulsion comprising the amide” value in data set [2] is “unstable”.
Regarding `CC(CC(=O)N(C)C)CC(C)(C)C` (stereo not drawn) [Isononanoic acid N,N-dimethylamide, isononanoic acid N,N-dimethylamide], the Phytotoxicity with wheat and black bindweed (3 days after treatment, 1% emulsion of concentrate (7.5% castor oil ethoxylate (30 EO), 2.5% Ca-Dodecylbenzolsulfonate, 90% amide), wheat and black bindweed) was 0 (0 means no damage). Further, in the data set on wheat and black bindweed (statement in words in the description), the “Phytotoxic effect on plants” value is recorded as “no phytotoxic effect”. In data set [2] (setting [3]), the “Emulsion 5% in Cipac D 1 h” value is “stable”, the “Emulsion 5% in Cipac D 2 h” value is “stable”, the “Emulsion 5% in Cipac D 4 h” value is reported as “stable” and the “Emulsion 5% in Cipac D 24 h” value was 0.5 ml cream. In data set [2] (setting [4]), the “Emulsion 5% in Cipac D 1 h” value is given as “stable”, the “Emulsion 5% in Cipac D 2 h” value was “stable”, the “Emulsion 5% in Cipac D 4 h” value was “stable” and the “Emulsion 5% in Cipac D 24 h” value is “stable”. In addition, in data set [2] (setting [5]), the “Emulsion 5% in Cipac D 1 h” value is “stable”, the “Emulsion 5% in Cipac D 2 h” value is given as “stable”, the “Emulsion 5% in Cipac D 4 h” value is “stable” and the “Emulsion 5% in Cipac D 24 h” value turned out to be 0.5 ml cream. In addition, in data set [2] (setting [6]), the “Emulsion 5% in Cipac D 1 h” value is on record as “stable”, the “Emulsion 5% in Cipac D 2 h” value is reported as “stable”, the “Emulsion 5% in Cipac D 4 h” value worked out at 0.5 ml cream and the “Emulsion 5% in Cipac D 24 h” value is 0.5 ml cream. Further, the “Stability of the emulsion comprising the amide” value in data set [2] was “stable”.
